# Assay results published in patent publication US20120270774A1, “MACROCYCLIC COMPOUNDS, COMPOSITIONS COMPRISING THEM AND METHODS FOR PREVENTING OR TREATING HIV INFECTION” (Yissum Research Development Company of the Hebrew …, priority 2009, published 2012).
# Experiments:
# human liver microsomes = type: in vitro ADME
# Method: The oxidative metabolism was evaluated in pooled liver microsomes of rats and humans with or without 3 μM of ketoconazole (CYP3A4 inhibitor) (Yang et al., 2005, Biopharm Drug Dispos 26, 387-402). The microsomes were purchased from BD Biosciences (Woburn, Mass.). […] The incubation mixture (3 ml) was prepared in triplicate for each species in a 0.1 m potassium phosphate buffer (pH 7.4) containing 1 μM of substrate, 0.5 μM CYP enzymes, 1.8 mM glucose-6-phosphate and 0.4 units/ml glucose-6-phosphate dehydrogenase. After a 5 min preincubation at 37° C., the reaction was initiated by adding β-NADPH (0.15 mM final concentration). Aliquots of 0.25 ml were taken at 0, 15 and 30 min and placed into 3 volumes of icecold acetonitrile (containing an internal standard) to terminate the reaction. The samples were vortexed and centrifuged at 10000 RPM for 8 min to collect supernatant for sample analysis.
# [1] = test system: pseudo typed viruses that express VSV-gp instead of gp-120; type: cell-based
# [2] = Pharmacokinetics of oral CG-1 with or without ritonavir
# Method: The pharmacokinetic profile of CG-1 was studied following intravenous (IV) and per-os (PO) administration to rats. Studies were performed in conscious Wistar male rats. An indwelling cannula was implanted into the left jugular vein 24 hours before the pharmacokinetic experiment to allow full recovery of the animals from the surgical procedure. Animals (n=5) received an intravenous (IV) bolus dose of 1 mg/kg of CG-1 or 10 mg/kg by oral gavage (n=5), CG-1 was dissolved in water. […] CG-1 administration. Plasma was separated by centrifugation (4000 g, 5 min, 4° C.) and stored at −70° C. pending analysis. A non-compartmental pharmacokinetic approach was used to compare pharmacokinetic profiles obtained following different modes of administration and to calculate bioavailability values. All calculations were performed utilizing WinNonlin® 5.0.1 software (Pharsight Corporation, Mountain View, Calif., USA).
# The pharmacokinetic tests were repeated as above with the addition of ritonavir to the oral administration of CG-1. The study included three groups; the first group received 10 mg/kg of CG-1 in aqueous solution, the second one received an emulsion of 10 mg/kg of CG-1 and 10 mg/kg of ritonavir and the third group received CG-1 in the same emulsion without ritonavir.
# [3] = test system: intestinal brush border enzymes; assay: Brush border membrane vesicles (BBMV) stability; type: in vitro ADME, Wistar rats; conditions: incubation in BBMVs at 37° C.
# Method: Brush border membrane vesicles (BBMVs) were prepared from combined duodenum, jejunum, and upper ileum by a Ca^+2 precipitation method ([…]., 1997., Biochim Biophys Acta 1323, 45-56, […] et al. 2003., Biochem Biophys Res Commun 301, 8-12). The intestines of 5 male Wistar rats, 200-250 gr, were rinsed with ice cold 0.9% NaCl and freed of mucus; the mucosa was scraped off the luminal surface with glass slides and put immediately into buffer containing […] and 10 mM Tris-HCl (pH 7.5, 4° C.) and then homogenated (Polytron PT 1200, Kinematica AG, Switzerland). CaCl2 was added to a final concentration of 10 mM. The homogenate was left shaking for 30 min at 4° C. and then centrifuged at 10,000 g for 10 min. The supernatant was then centrifuged at 48,000 g for 30 min and an additional two purification steps were undertaken by suspending the pellet in 300 mM mannitol and 10 mM Hepes/Tris (pH 7.5) and centrifuging at […]. Purification of brush border membranes was assayed using the brush border membrane enzyme markers gamma-glutamyl transpeptidase (GGT), leucine amino peptidase (LAP) and alkaline phosphatase. During the course of these studies, enrichment in brush border membrane enzymes varied between 13- and 18-fold. The enzymatic reaction was performed as previously reported (Ovadia et al., 2009, Bioorg Med Chem 18, 580-589). […]
# [4] = Pharmacokinetic profile of CG-1 following IV and PO administration
# Method: Rats were kept in a light-controlled room (light from 7:00 to 19:00) and were maintained on laboratory chow and water ad libitum.
# The pharmacokinetic profile of CG-1 was studied following intravenous (IV) and per-os (PO) administration to rats. Studies were performed in conscious Wistar male rats. An indwelling cannula was implanted into the left jugular vein 24 hours before the pharmacokinetic experiment to allow full recovery of the animals from the surgical procedure. Animals (n=5) received an intravenous (IV) bolus dose of 1 mg/kg of CG-1 or 10 mg/kg by oral gavage (n=5), CG-1 was dissolved in water. […] Plasma was separated by centrifugation (4000 g, 5 min, 4° C.) and stored at −70° C. pending analysis. A non-compartmental pharmacokinetic approach was used to compare pharmacokinetic profiles obtained following different modes of administration and to calculate bioavailability values. All calculations were performed utilizing WinNonlin® 5.0.1 software (Pharsight Corporation, Mountain View, Calif., USA).
# Non-compartmental pharmacokinetic analysis was performed using WinNonlin software, standard.
# HIV-1 strand HXB2 = assay: HIV-1 infection inhibition, MAGI assay; type: cell-based; conditions: for effect on HIV-1 infection (in words): MAGI assay, cultured cells, μM range
# Method: Hela cells were obtained from ATCC, (Manassas, Va., USA) and then grown in 75 cm2 flasks with approximately 0.5×10^6 cells/flask at 37° C. in 5% CO2 atmosphere and at a relative humidity of 95%. The culture growth medium consisted of Dulbecco's Modified Eagle Medium (DMEM) supplemented with 10% heat-inactivated fetal bovine serum (FBS), 1% nonessential amino acids. The medium was replaced every other day. Titration of HIV-1 strand HXB2 in the absence or presence of the inhibitor was carried out by the multinuclear activation of a galactosidase indicator (MAGI) assay, similarly to the procedure described by Kimpton and […] (Virol. 66, 2232, 1992). Briefly, HeLa-CD4+beta-gal cells were transferred into 96-well plates at 15×10^3 cells per well. On the following day, the cells were infected with 50 μl of serially diluted virus in the presence of […] of DEAE-dextran (Pharmacia, Sweden). Two days post-infection, cultured cells were fixed with 1% formaldehyde and 0.2% glutaraldehyde in PBS. Following intensive wash with PBS, cells were stained with a solution of 4 mM potassium ferrocyanide, 4 mM potassium ferricyanide, 2 mM MgCl2 and 0.4 mg/ml of X-Gal (Ornat, Israel). Blue cells were counted under a light microscope. According to a slightly different procedure, the assay consisted of CD4 expressing Hela P4 cells containing the β-galactosidase reporter gene placed downstream […]. the HIV-LTR promotor. These cells were seeded 24 hours prior to viral infection at a density of 5×10^5 […] in 24 well culture plates (TPP model by Beyneix). 50 μL of virus solution prepared from CEM infected cells' supernatant, were incubated for 1 hour with the assayed peptides at the required concentrations, at 4° C. 10 μg of anti CD4 monoclonal antibodies 13B8.2 or […] were used as control. After incubation the virus solution was diluted to a total volume of 1 ml and was added to the Hela P4 cells. The cells were incubated at these conditions for 3 days after which their infection rate was assayed according to the β-galactosidase activity in the cells extract. The cells were washed well, harvested and disintegrated in a buffer containing 60 mM Na2HPO4, 40 mM NaH2PO4, 10 mM KCl, 1 mM MgSO4, 50 mM β-mercaptoethanol, 2.5 mM EDTA, 0.125% NP40, 0.125% triton, 20% glycerol, 0.2 mM PMSF and 100 U/ml approtinin. The cells extract was cleaned by centrifuge at 4° C. for 15 min at 13,000 rpm. β-galactosidase activity was determined by incubation of 150 μL of total cell extract at 37° C. for 2 hours in the presence of 6 mM ONPG (O-Nitrophenyl-β-D-galactopyranoside) in a buffer containing 80 mM Na2HPO4, 1 mM β-mercaptoethanol and 10 m MMgCl2, followed by absorption measurement at 410 nm. The β-galactosidase activity was normalized according to the total protein quantity in the assay.
# [5] = Permeability ex-vivo, Ussing side by side diffusion chamber; type: in vitro ADME, Wistar rats; conditions: Ussing model
# [6] = PO 10 mg/kg with RTV 10 mg/kg (emulsion)
structure (smiles),measurement,setting,value
N=C(N)NCCCC1NC(=O)CCCCCC(=O)NC(Cc2ccccc2)CN(CC(N)=O)C1=O (centres unmarked) [CG-1],oxidative metabolism in liver microsomes,human liver microsomes,partially metabolized
same,microsomal stability with ketoconazole,"human liver microsomes; human, microsomes",significantly improved its stability
same,infection inhibition of VSV-gp pseudo typed viruses,[1],did not have any effect
same,Oral bioavailability,[2]; [6],21±3%
same,T1/2,[2]; [6],93 ± 8 min
same,Tmax,[2]; [6],18 ± 2 min
same,Oral bioavailability,"[2]; PO 10 mg/kg, without ritonavir",7.3±1.6%
same,T1/2,"[2]; PO 10 mg/kg, without ritonavir",73 ± 6 min
same,Tmax,"[2]; PO 10 mg/kg, without ritonavir",18 ± 1.5 min
same,Cmax increase when ritonavir was added,[2]; with vs without ritonavir,3 fold
same,stability to enzymatic degradation in BBMVs,[3],metabolically stable and is not degraded
same,Cmax,"[4]; IV bolus, 1 mg/kg",102 ± 19 ng/mL
same,Tmax,"[4]; IV bolus, 1 mg/kg",5 min
same,Oral bioavailability,[4]; PO 10 mg/kg vs IV 1 mg/kg,~10%
same,AUC,"[4]; PO, 10 mg/kg oral gavage",21770 ± 63 ng·min/mL
same,Cmax,"[4]; PO, 10 mg/kg oral gavage",866 ± 76 ng/mL
same,Tmax,"[4]; PO, 10 mg/kg oral gavage",18 min
same,CI,[4]; printed in the PO row,14.53 ± 0.33 mL/min/kg
same,Vss,[4]; printed in the PO row,0.6 L/kg
same,effect on HIV-1 infection (in words),HIV-1 strand HXB2,low μM activity
same,inhibition of viral infection,HIV-1 strand HXB2; low μM range,> 80%
same,permeability coefficient (Papp) ex-vivo compared with the other analogs,[5],significantly higher than the other analogs
same,transport in the distal regions,"[5]; distal regions (ileum, colon)",significantly lower
same,transport in the jejunum,[5]; jejunum,significantly higher
N=C(N)NCCCC1NC(=O)CCCCCC(=O)NC(Cc2ccc(O)cc2)CN(CC(N)=O)C1=O (centres unmarked) [MC-1],effect on HIV-1 infection (in words),HIV-1 strand HXB2,did not reduce the infectivity
N=C(N)NCCCC1CN(CC(N)=O)C(=O)C(Cc2ccccc2)NC(=O)CCCCCC(=O)N1 (centres unmarked) [SC-1],effect on HIV-1 infection (in words),HIV-1 strand HXB2,weak inhibitory effect
